# How the values were obtained:
# PDCs and GSCs = assay: Transwell cell invasion assay; assay type: cell-based; conditions: 0.1 μM and 0.3 μM, 48–72 h
# Method: First, cells were starved for 12 h. The top surface of the membrane in the upper transwell chamber was coated with Matrigel (dilution ratio, 1:100, Corning, USA) by incubation for 30 min. Cells were plated in the upper chamber with serum-free neurobasal medium containing the corresponding concentration of GA-amide, and 600 μL of neurobasal medium containing 10% FBS and the same concentration of GA-amide was added to the lower chamber for 24–72 h of culture. Next, the cells in the transwell chamber were fixed with 4% paraformaldehyde for 20 min. After noninvaded cells in the upper chamber were removed by wiping, the remaining cells were stained with 1% crystal violet staining solution for 20 min and washed with double-distilled water. Finally, cell invasion was evaluated by microscopy.
# subcutaneous glioma PDX = assay: Subcutaneous PDX model of glioma (GBM1); assay type: in vivo, nude mice
# Method: Fig. 2 The BBB permeability and tumor suppressor ability of GA-amide compared with TMZ. GA-amide (a) or TMZ (b) concentration in the tumor area and normal brain tissue following a single injection of GA-amide (10 mg/kg, i.v.) or TMZ (10 mg/kg, i.v.). The data are presented as the means ± SEMs (n = 3). c Western blot analysis of the expression of TrkA in mouse tumor tissues (T) and normal brain tissues (N), n = 4. d Western blot analysis of glycosylated TrkA expression in human normal brain tissues (N) and glioma tissues of different grades. e Time curve of GA-amide and TMZ treatment in a cell viability assay (MTS) in T2-4, GSC2 and T12-1 cells. f–h A PDX mouse model was established, and the mice were treated with vehicle (control, n = 9), 2 mg/kg GA-amide (n = 9), 2 mg/kg GAC (n = 9) or […] TMZ (n = 8) by i.p. injection daily for 10 days. A summary photograph is presented in (f), statistical results in (g) and the body weights of mice in (h); the mean ± SEMs are shown. n.s: P ≥ 0.05, *P < 0.05, **P < 0.01 and ***P < 0.001 compared with the control group by one-way ANOVA at each time point
# Male nude mice aged 5–6 weeks were selected for establishment of the in vivo glioma mouse models. For the PDX models, the tumor sample will be soaked in HBSS solution on ice and transferred from the hospital to the laboratory. Patient-related information was shown in Supplementary Table 4). For the subcutaneous PDX models, the isometric fresh GBM tumor (GBM1) specimens were implanted s.c. into the flank of a nude mouse. Then, the mice were treated with GA-amide (2 mg/kg i.p.), gambogic acid (2 mg/kg i.p.), TMZ (65 mg/kg i.p., Selleck) or vehicle after the tumors grew to 100 mm^3. The mouse body weights were measured, and tumor volumes were calculated using the formula L × W^2/2. After treatment, the xenografts were harvested and photographed.
# [1] = system: WDR1 knockout T2-4 and T12-1 cells; assay: Cell viability of WDR1 knockout PDCs; assay type: cell-based, human; conditions: WDR1 knockout T2-4 and T12-1 versus sg-NC
# Method: The data are representative of 3 wells, scale bar: 500 μm. j Statistical results of the recovery of invasion.
# For cell transfection, we first inserted the full-length cDNA encoding WDR1 and the WDR1 sequence with mutation of the four interaction sites into pcDNA3.1. Then, 293T cells were transiently transfected with these plasmids using Lipofectamine 3000 (Invitrogen). For cell transduction, WDR1 knockout and WDR1-overexpressing PDCs were generated by lentiviral transduction and selected by 1 µg/mL puromycin. All sg-WDR1 sequences are listed as follows: sg-WDR1 #2: 5′-[…]-3′, sg-WDR1 #3: 5′-[…]-3′, sg-WDR1 #4: 5′-[…]-3′, sg-WDR1 #5: 5′-[…]-3′. For cell transduction, CFL1 or MYH9 knockdown PDCs were generated by lentiviral transduction and selected by 1 µg/mL puromycin. All shRNA sequences are listed as follows: shCFL1-1: […], shCFL1-2: […], shMYH9-1: GCAAACCTCGAGAAGGCAA, shMYH9-2: GAAGTCAGCTCCCTAAAGA.
# [2] = Acute toxicity assay, blood routine examination; assay type: in vivo, mice; conditions: for #Retic (Reticulocyte) / CH (corpuscular hemoglobin) / CHCM (Cellular Hemoglobin Concentration Mean) / CHDW (Cell hemoglobin distribution width) / HCT (Hematocrit) / HDW (Hemoglobin Distribution Width) / HGB (Hemoglobin) / MCH (Mean Corpuscular Hemoglobin) / MCHC (Mean corpuscular hemoglobin concentration) / MCV (Mean Corpuscular Volume) / MPV (Mean platelet volume) / PCT (Plateletocrit) / PDW (Platelet distribution width) / PLT (Platelet) / RBC (Red Blood Cell) / RDW (red blood cell volume distribution width) / WBC (White Blood Cell): mice
# TrkA = target: T1, TrkA (Homo sapiens, UniProt P04629); assay: Western blot of TrkA phosphorylation in GSCs; assay type: cell-based; conditions: GSC2 and U87MG-SLC cells, 4 hours
# T1 construct: endogenous in cells; host or cells: GSC2 and U87MG-SLC glioma stem cells
# Method: Proteins in the samples were separated on SDS–polyacrylamide gels and transferred to nitrocellulose membranes (Amersham, Sweden). After blocking with 5% skim milk, the membranes were incubated with the indicated primary antibodies listed in Supplementary Table 3 overnight. After washing with 1 × TBST three times, the membranes were incubated with secondary antibodies, and protein bands were detected by using ECL reagent.
# Supplementary Fig. 5 TrkA was not the functional target for GA-amide to inhibit glioma. a Western blot analyses of the TrkA and p-TrkA expression in GSC2 and U87MG-SLC cells with GA-amide treatment for 4 hours. b Western blot analyses of the p-TrkA expression in GSC2 with GA-amide treatment for different times. c, d The combination effects of GA-amide with GW441756, a TrkA inhibitor, or with K252a, an inhibitor of Trk family in GSC2 (c) and U87MG-SLC (d) (48 hours, n = 3).
# T1 sequence (P04629 33-796): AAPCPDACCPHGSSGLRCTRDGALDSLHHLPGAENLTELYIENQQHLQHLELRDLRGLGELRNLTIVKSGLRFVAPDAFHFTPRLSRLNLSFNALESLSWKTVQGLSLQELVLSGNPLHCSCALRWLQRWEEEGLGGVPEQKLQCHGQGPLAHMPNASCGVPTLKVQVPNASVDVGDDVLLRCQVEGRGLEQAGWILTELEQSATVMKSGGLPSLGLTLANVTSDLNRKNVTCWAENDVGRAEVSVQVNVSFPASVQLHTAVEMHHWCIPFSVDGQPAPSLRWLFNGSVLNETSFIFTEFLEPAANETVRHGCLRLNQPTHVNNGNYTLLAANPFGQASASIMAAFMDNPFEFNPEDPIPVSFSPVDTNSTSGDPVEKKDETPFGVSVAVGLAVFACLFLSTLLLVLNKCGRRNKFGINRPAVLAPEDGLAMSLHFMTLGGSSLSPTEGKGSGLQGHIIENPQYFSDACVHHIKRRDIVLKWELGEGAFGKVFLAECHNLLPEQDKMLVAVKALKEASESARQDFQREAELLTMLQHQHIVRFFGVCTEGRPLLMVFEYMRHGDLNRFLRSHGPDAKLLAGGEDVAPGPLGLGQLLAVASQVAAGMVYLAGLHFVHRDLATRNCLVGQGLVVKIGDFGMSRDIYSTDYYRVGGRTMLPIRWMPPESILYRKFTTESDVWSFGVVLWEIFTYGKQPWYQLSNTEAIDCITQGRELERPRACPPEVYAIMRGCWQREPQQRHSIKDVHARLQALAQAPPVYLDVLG
smiles,measurement,setting,value
"CC(C)=CCC[C@]1(C)C=Cc2c(O)c3c(c(CC=C(C)C)c2O1)O[C@]12C(=C[C@@H]4CC1C(C)(C)O[C@@]2(C/C=C(/C)C(N)=O)C4=O)C3=O [GA-amide, gambogic amide]",number of invading cells (transwell),PDCs and GSCs,significant decrease in the number of invading PDCs and GSCs
same,body weight of mice,subcutaneous glioma PDX; 2 mg/kg i.p. daily for 10 days,did not cause the loss of body weight
same,tumor volume versus control,subcutaneous glioma PDX; 2 mg/kg i.p. daily for 10 days,significantly decreased compared with those in the control group
same,"Ki67, CD133 and cleaved caspase3 in tumor sections (immunohistology)","subcutaneous glioma PDX; PDX tumors at endpoint, 10 days treatment",decreased expression of Ki67 and the GSC marker prominin 1 (CD133) as well as an increased level of cleaved caspase3
same,"histology of liver, kidney and small intestine (H&E)",subcutaneous glioma PDX; after GA-amide treatment,no discernible abnormalities
same,suppression of cell proliferation in WDR1 knockout cells,[1],decreased suppressive effects of GA-amide on cell proliferation
same,routine blood parameters and serum biochemical analytes versus control,"[2]; 1 mg/kg and 10 mg/kg, one-time i.v., ALT and Cl fluctuated",no significant differences in routine blood parameters and most analytes evaluated in biochemical analysis of mouse serum
same,#Retic (Reticulocyte),[2]; 1mg/kg one-time i.v.,335.1±72.9 ×109cells/L
same,CH (corpuscular hemoglobin),[2]; 1mg/kg one-time i.v.,16.8 ± 0.5 pg
same,CHCM (Cellular Hemoglobin Concentration Mean),[2]; 1mg/kg one-time i.v.,35.7 ± 0.8 g/dL
same,CHDW (Cell hemoglobin distribution width),[2]; 1mg/kg one-time i.v.,3.00±0.39%
same,HCT (Hematocrit),[2]; 1mg/kg one-time i.v.,42.8±7.5%
same,HDW (Hemoglobin Distribution Width),[2]; 1mg/kg one-time i.v.,2.66 ± 0.20 g/dL
same,HGB (Hemoglobin),[2]; 1mg/kg one-time i.v.,13.0 ± 0.7 g/dL
same,MCH (Mean Corpuscular Hemoglobin),[2]; 1mg/kg one-time i.v.,14.5 ± 1.7 pg
same,MCHC (Mean corpuscular hemoglobin concentration),[2]; 1mg/kg one-time i.v.,31.0 ± 3.9 g/dL
same,MCV (Mean Corpuscular Volume),[2]; 1mg/kg one-time i.v.,47.0 ± 1.8 fL
same,MPV (Mean platelet volume),[2]; 1mg/kg one-time i.v.,8.3 ± 0.3 fL
same,PCT (Plateletocrit),[2]; 1mg/kg one-time i.v.,1.33±0.30%
same,PDW (Platelet distribution width),[2]; 1mg/kg one-time i.v.,48.8±2.5%
same,PLT (Platelet),[2]; 1mg/kg one-time i.v.,1603±310 ×103cells/μL
same,RBC (Red Blood Cell),[2]; 1mg/kg one-time i.v.,9.09±1.40 ×106cells/μL
same,RDW (red blood cell volume distribution width),[2]; 1mg/kg one-time i.v.,16.5±1.2%
same,WBC (White Blood Cell),[2]; 1mg/kg one-time i.v.,4.78±1.34 ×103cells/μL
same,#Retic (Reticulocyte),[2]; 10mg/kg one-time i.v.,836.7±674.4 ×109cells/L
same,CH (corpuscular hemoglobin),[2]; 10mg/kg one-time i.v.,17.0 ± 0.5 pg
same,CHCM (Cellular Hemoglobin Concentration Mean),[2]; 10mg/kg one-time i.v.,35.4 ± 1.3 g/dL
same,CHDW (Cell hemoglobin distribution width),[2]; 10mg/kg one-time i.v.,3.15±0.11%
same,HCT (Hematocrit),[2]; 10mg/kg one-time i.v.,48.5±5.1%
same,HDW (Hemoglobin Distribution Width),[2]; 10mg/kg one-time i.v.,2.71 ± 0.10 g/dL
same,HGB (Hemoglobin),[2]; 10mg/kg one-time i.v.,13.6 ± 0.5 g/dL
same,MCH (Mean Corpuscular Hemoglobin),[2]; 10mg/kg one-time i.v.,13.6 ± 1.8 pg
same,MCHC (Mean corpuscular hemoglobin concentration),[2]; 10mg/kg one-time i.v.,28.4 ± 3.8 g/dL
same,MCV (Mean Corpuscular Volume),[2]; 10mg/kg one-time i.v.,47.8 ± 1.1 fL
same,MPV (Mean platelet volume),[2]; 10mg/kg one-time i.v.,8.4 ± 0.2 fL
same,PCT (Plateletocrit),[2]; 10mg/kg one-time i.v.,1.63±0.60%
same,PDW (Platelet distribution width),[2]; 10mg/kg one-time i.v.,49.9±2.3%
same,PLT (Platelet),[2]; 10mg/kg one-time i.v.,1936±670 ×103cells/μL
same,RBC (Red Blood Cell),[2]; 10mg/kg one-time i.v.,10.13±1.05 ×106cells/μL
same,RDW (red blood cell volume distribution width),[2]; 10mg/kg one-time i.v.,17.0±0.6%
same,WBC (White Blood Cell),[2]; 10mg/kg one-time i.v.,4.38±0.95 ×103cells/μL
same,TrkA phosphorylation,TrkA,TrkA was phosphorylated at Y751 and Y490 in GSCs

# From article PMC10630452, “The tumor-enriched small molecule gambogic amide suppresses glioma by targeting WDR1-dependent cytoskeleton remodeling” (Signal Transduction and Targeted Therapy, 2023)
